The source of these data is US8455544B2, “Synthetic triterpenoids and methods of use in the treatment of disease” (Reata Pharmaecuticals, Inc., priority 2008, dated 2013).

Read-outs that look alike come from different tables or passages of the source.

For data set [1] the following is noted: cynomolgus monkey, in vivo, po, 4.1 mg/kg.
In the next data set the test system is RAW264.7 macrophages. Nature of the data set: Cell viability, WST-1 reagent. In kind it is cell-based. The note with it: Mus musculus, RAW264.7 (20 ng/ml IFNγ). (Tetrazolium dyes change colour on reduction, which living cells bring about.)
The subject of data set [2] is IFNγ-induced NO production in RAW264.7 macrophages. Description: Suppression of IFNγ-induced NO production (Griess reagent system). In kind it is cell-based. The note with it: Mus musculus; RAW264.7, pre-treated 2 hours, then 20 ng/ml IFNγ for 24 hours. (The Griess reaction detects nitrite, a stable product of nitric oxide.)
Data set [3] relates to NQO1 in Hepa1c1c7 murine hepatoma cells. Conditions: concentration required to induce a two-fold increase in expression of NQO1, Hepa1c1c7 cells; cited from earlier work.
Details of data set [4]: unit not given here. Conditions: six-month, cited from earlier work.

As for `COC(=O)[C@]12CCC(C)(C)C[C@H]1[C@H]1C(=O)C=C3[C@@]4(C)C=C(C#N)C(=O)C(C)(C)[C@@H]4CC[C@@]3(C)[C@]1(C)CC2` [Form B], the “Bioavailability compared with Form A” value in data set [1] is recorded as “higher”.
Usually IC50 stands for the concentration at which inhibition is half-maximal. On to `CC1(C)CC[C@]2(C(=O)O)CC[C@]3(C)[C@H](C(=O)C=C4[C@@]5(C)C=C(C#N)C(=O)C(C)(C)[C@@H]5CC[C@]43C)[C@@H]2C1` [RTA 401, 2-cyano-3,12-dioxooleane-1,9(11)-dien-28-oic acid], for which the figures for the IC50 (with RAW264.7 macrophages; in data set [2]) were above 0.2 µM and around 0.01 µM, respectively. The “NQO1 CD” value in data set [3] is listed as 2.3 nM.
Take `CC1(C)CC[C@]2(C(=O)n3ccnc3)CC[C@]3(C)[C@H](C(=O)C=C4[C@@]5(C)C=C(C#N)C(=O)C(C)(C)[C@@H]5CC[C@]43C)[C@@H]2C1` [RTA 403]: the half-maximal inhibitory concentration (IC50) with RAW264.7 macrophages is 0.1 µM; in data set [2], around 0.0006 µM. Further, the “NQO1 CD” value in data set [3] is reported as 3.3 nM.
`CC1(C)CC[C@]2(C(=O)NCC(F)(F)F)CC[C@]3(C)[C@H](C(=O)C=C4[C@@]5(C)C=C(C#N)C(=O)C(C)(C)[C@@H]5CC[C@]43C)[C@@H]2C1` [RTA 404]: the IC50 with RAW264.7 macrophages is 0.1 µM; in data set [2] it was 0.0058 µM.
For the compound `CCNC(=O)[C@]12CCC(C)(C)C[C@H]1[C@H]1C(=O)C=C3[C@@]4(C)C=C(C#N)C(=O)C(C)(C)[C@@H]4CC[C@@]3(C)[C@]1(C)CC2` [RTA 405], the IC50 with RAW264.7 macrophages was around 0.2 µM; in data set [2] it was 0.006 µM.
Take `N[C@@H](CC(=O)N1CCn2c(nnc2C(F)(F)F)C1)Cc1cc(F)c(F)cc1F` [Sitagliptin]: the “Change (Hemoglobin A1c)” value is −0.7 in data set [4] (+/− metformin with A1c ≧ 7.5, mean A1c 8.9, duration of DM 4.4 years); −0.8 in data set [4] (+/− placebo with A1c ≧ 7.0, mean A1c 8.0, duration of DM 4.3 years); −0.7 in data set [4] (pioglitazone +/− sitagliptin, A1c ≧ 7.0, mean A1c 8.1, duration of DM 6.1 years).
As for `CC1(C)CC[C@]2(C#N)CC[C@]3(C)[C@H](C(=O)C=C4[C@@]5(C)C=C(C#N)C(=O)C(C)(C)[C@@H]5CC[C@]43C)[C@@H]2C1` [TP-225], the IC50 with RAW264.7 macrophages was 0.075 µM; in data set [2], around 0.0004 µM. The “NQO1 CD” value in data set [3] was 0.28 nM.
Consider Pramlintide acetate, for which, in data set [4] (+/− insulin, mean A1c 9.1, duration of DM 13 years), the “Change (Hemoglobin A1c)” value is −0.4.
